Test system: NCI-H211 tumor spheroids, viability percent test/control
Assay: Anticancer human tumor NCI-H211 cell line growth inhibition;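 further: spheroids exposed to agents for seven days before readout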
Conditions: spheroids with HUVEC and MSC; for IC50: curve of first compound; for viability, T/C: stronger effect = lower value
Method in brief: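 Complex tumor spheroids combined malignant cells with endothelial cells and mesenchymal stem cells. DNA-damaging drugs and DNA repair inhibitors were tested alone and in combination, at half-log dilutions down from clinical Cmax (top 10 microM if Cmax unknown), 0.25% DMSO final.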

[1] = second compound 0.003 µM, first compound 0.0949 µM
[2] = second compound 0.003 µM, first compound 0.3 µM
[3] = second compound 0.003 µM, first compound 0.949 µM
[4] = second compound 0.003 µM, first compound 3 µM
[5] = second compound 0.00949 µM, first compound 0.0949 µM
[6] = second compound 0.00949 µM, first compound 0.3 µM
[7] = second compound 0.00949 µM, first compound 0.949 µM
[8] = second compound 0.00949 µM, first compound 3 µM
[9] = second compound 0.03 µM, first compound 0.0949 µM
[10] = second compound 0.03 µM, first compound 0.3 µM
[11] = second compound 0.03 µM, first compound 0.949 µM
[12] = second compound 0.03 µM, first compound 3 µM
[13] = second compound 0.0949 µM, first compound 0.0949 µM
[14] = second compound 0.0949 µM, first compound 0.3 µM
[15] = second compound 0.0949 µM, first compound 0.949 µM
[16] = second compound 0.0949 µM, first compound 3 µM
[17] = second compound 0.3 µM, first compound 0.0949 µM
[18] = second compound 0.3 µM, first compound 0.3 µM
[19] = second compound 0.3 µM, first compound 0.949 µM
[20] = second compound 0.3 µM, first compound 3 µM

O=C(c1cc(Cc2n[nH]c(=O)c3ccccc23)ccc1F)N1CCN(C(=O)C2CC2)CC1 + CC[C@@]1(O)C(=O)OCc2c1cc1n(c2=O)Cc2cc3c(CN(C)C)c(O)ccc3nc2-1
IC50 (second compound 0.003 µM): < 94.9 nM | IC50 (second compound 0.00949 µM): < 94.9 nM | IC50 (second compound 0.03 µM): < 94.9 nM | IC50 (second compound 0.0949 µM): < 94.9 nM | IC50 (second compound 0.3 µM): < 94.9 nM | viability, T/C [1]: 9.62% | viability, T/C [2]: 3.33% | viability, T/C [3]: 1.25% | viability, T/C [4]: 1.06% | viability, T/C (second compound 0.003 µM, first compound 9.49 µM): 0.76% | viability, T/C (second compound 0.003 µM, first compound 30 µM): 0.99% | viability, T/C [5]: 1.09% | viability, T/C [6]: 1.14% | viability, T/C [7]: 1.15% | viability, T/C [8]: 1.2% | viability, T/C (second compound 0.00949 µM, first compound 9.49 µM): 1.06% | viability, T/C (second compound 0.00949 µM, first compound 30 µM): 0.96% | viability, T/C [9]: 1.07% | viability, T/C [10]: 1.19% | viability, T/C [11]: 1.2% | viability, T/C [12]: 1.12% | viability, T/C (second compound 0.03 µM, first compound 9.49 µM): 0.99% | viability, T/C (second compound 0.03 µM, first compound 30 µM): 0.78% | viability, T/C [13]: 1.07% | viability, T/C [14]: 1.03% | viability, T/C [15]: 1.31% | viability, T/C [16]: 1.37% | viability, T/C (second compound 0.0949 µM, first compound 9.49 µM): 0.98% | viability, T/C (second compound 0.0949 µM, first compound 30 µM): 1.09% | viability, T/C [17]: 1.03% | viability, T/C [18]: 1.25% | viability, T/C [19]: 1% | viability, T/C [20]: 1.05% | viability, T/C (second compound 0.3 µM, first compound 9.49 µM): 1% | viability, T/C (second compound 0.3 µM, first compound 30 µM): 0.91%

CNCc1ccc(-c2cc(-c3nc(-c4ccc(S(=O)(=O)C(C)C)cc4)cnc3N)on2)cc1 + CC[C@@]1(O)C(=O)OCc2c1cc1n(c2=O)Cc2cc3c(CN(C)C)c(O)ccc3nc2-1
IC50 (second compound 0.003 µM): 9.61 nM | IC50 (second compound 0.00949 µM): < 9.49 nM | IC50 (second compound 0.03 µM): < 9.49 nM | IC50 (second compound 0.0949 µM): < 9.49 nM | IC50 (second compound 0.3 µM): < 9.49 nM | viability, T/C (second compound 0.003 µM, first compound 0.00949 µM): 50.5% | viability, T/C (second compound 0.003 µM, first compound 0.03 µM): 9.5% | viability, T/C [1]: 0.85% | viability, T/C [2]: 0.92% | viability, T/C [3]: 0.05% | viability, T/C [4]: 0.11% | viability, T/C (second compound 0.00949 µM, first compound 0.00949 µM): 3.19% | viability, T/C (second compound 0.00949 µM, first compound 0.03 µM): 1.35% | viability, T/C [5]: 1.06% | viability, T/C [6]: 1.09% | viability, T/C [7]: 0.11% | viability, T/C [8]: 0.11% | viability, T/C (second compound 0.03 µM, first compound 0.00949 µM): 0.96% | viability, T/C (second compound 0.03 µM, first compound 0.03 µM): 0.98% | viability, T/C [9]: 0.97% | viability, T/C [10]: 1.07% | viability, T/C [11]: 0.14% | viability, T/C [12]: 0.11% | viability, T/C (second compound 0.0949 µM, first compound 0.00949 µM): 1.04% | viability, T/C (second compound 0.0949 µM, first compound 0.03 µM): 1.29% | viability, T/C [13]: 1.06% | viability, T/C [14]: 0.67% | viability, T/C [15]: 0.12% | viability, T/C [16]: 0.13% | viability, T/C (second compound 0.3 µM, first compound 0.00949 µM): 0.95% | viability, T/C (second compound 0.3 µM, first compound 0.03 µM): 1.15% | viability, T/C [17]: 1.37% | viability, T/C [18]: 0.82% | viability, T/C [19]: 0.21% | viability, T/C [20]: 0.18%

COc1ccc([C@@H](O)c2cc(-c3ncnc4cc(N5CCOCC5)ccc34)c(F)cc2Cl)nn1 + Cn1nnc2c(C(N)=O)ncn2c1=O
IC50 (second compound 1 µM): 6280 nM | IC50 (second compound 3.16 µM): 5810 nM | IC50 (second compound 10 µM): 3890 nM | IC50 (second compound 31.6 µM): < 31.6 nM | IC50 (second compound 100 µM): < 31.6 nM | viability, T/C (second compound 1 µM, first compound 0.0316 µM): 102% | viability, T/C (second compound 1 µM, first compound 0.1 µM): 102% | viability, T/C (second compound 1 µM, first compound 0.316 µM): 90.3% | viability, T/C (second compound 1 µM, first compound 1 µM): 74.5% | viability, T/C (second compound 1 µM, first compound 3.16 µM): 85.3% | viability, T/C (second compound 1 µM, first compound 10 µM): 31.5% | viability, T/C (second compound 3.16 µM, first compound 0.0316 µM): 88.9% | viability, T/C (second compound 3.16 µM, first compound 0.1 µM): 100% | viability, T/C (second compound 3.16 µM, first compound 0.316 µM): 105% | viability, T/C (second compound 3.16 µM, first compound 1 µM): 69.4% | viability, T/C (second compound 3.16 µM, first compound 3.16 µM): 73.2% | viability, T/C (second compound 3.16 µM, first compound 10 µM): 33.3% | viability, T/C (second compound 10 µM, first compound 0.0316 µM): 99% | viability, T/C (second compound 10 µM, first compound 0.1 µM): 88.6% | viability, T/C (second compound 10 µM, first compound 0.316 µM): 84% | viability, T/C (second compound 10 µM, first compound 1 µM): 71.9% | viability, T/C (second compound 10 µM, first compound 3.16 µM): 60.7% | viability, T/C (second compound 10 µM, first compound 10 µM): 21.7% | viability, T/C (second compound 31.6 µM, first compound 0.0316 µM): 41.1% | viability, T/C (second compound 31.6 µM, first compound 0.1 µM): 38.5% | viability, T/C (second compound 31.6 µM, first compound 0.316 µM): 35.1% | viability, T/C (second compound 31.6 µM, first compound 1 µM): 34.6% | viability, T/C (second compound 31.6 µM, first compound 3.16 µM): 21.1% | viability, T/C (second compound 31.6 µM, first compound 10 µM): 7.82% | viability, T/C (second compound 100 µM, first compound 0.0316 µM): 21.6% | viability, T/C (second compound 100 µM, first compound 0.1 µM): 19.3% | viability, T/C (second compound 100 µM, first compound 0.316 µM): 15.9% | viability, T/C (second compound 100 µM, first compound 1 µM): 8.08% | viability, T/C (second compound 100 µM, first compound 3.16 µM): 5.69% | viability, T/C (second compound 100 µM, first compound 10 µM): 2.16%

From PubChem BioAssay AID1845209 (Molecular Pharmacology Branch, DTP, NCI, 2023)
